Results published in PMC5522427, “Structural and Functional Analysis of Latex Clearing Protein (Lcp) Provides Insight into the Enzymatic Cleavage of Rubber” (Scientific Reports, 2017).

Biological target: T1, LcpK30 (Streptomyces sp. K30, UniProt Q3L8N0)
T1 construct: gene lcp; monomer; residues 31-403 modelled; haem b
Test: crystal structure of complex ([…] Å); EPR
Format: binding
Conditions: open state; imidazole coordinates haem iron as distal axial ligand, replacing Lys167; 0.2 M malate/imidazole pH 7.5 (crystal); 1 mM imidazole (EPR); ferric as isolated

T1 sequence (Q3L8N0 31-407): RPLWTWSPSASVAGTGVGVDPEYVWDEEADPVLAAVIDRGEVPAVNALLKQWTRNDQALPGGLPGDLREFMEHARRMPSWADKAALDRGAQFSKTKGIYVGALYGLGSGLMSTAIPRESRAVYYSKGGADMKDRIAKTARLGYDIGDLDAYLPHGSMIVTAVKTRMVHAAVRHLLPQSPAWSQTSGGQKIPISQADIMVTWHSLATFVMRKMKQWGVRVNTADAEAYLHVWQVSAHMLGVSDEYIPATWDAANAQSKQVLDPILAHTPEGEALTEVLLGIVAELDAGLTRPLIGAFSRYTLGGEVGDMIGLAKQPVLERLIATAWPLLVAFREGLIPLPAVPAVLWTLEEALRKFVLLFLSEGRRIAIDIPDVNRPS

SMILES: c1c[nH]cn1 [imidazole]
- crystal structure of complex (1.48 Å); EPR: the distal axial position at the haem iron was now occupied by an imidazole molecule
